Assay results: US10183913B2, “Pyrazole compound” (Sumitomo Dainippon Pharma Co., Ltd., priority 2010, dated 2019)
Where a name gives a salt, the structure may show the parent alone. Read-outs that look alike come from different tables or passages of the source.

Assays:
[1] = target: human serotonin 2C receptor (h-5-HT2C) (Homo sapiens (Human), UniProt P28335); test: [3H] mesulergine binding assay to evaluate affinity for human 5-HT2C receptor; details: h-5-HT2C/CHO membrane preparation, read-out: Test Ex. 2: 5-HT2C receptor binding inhibition constant Ki
human serotonin 2C receptor (h-5-HT2C), sequence (P28335 whole entry, looked up): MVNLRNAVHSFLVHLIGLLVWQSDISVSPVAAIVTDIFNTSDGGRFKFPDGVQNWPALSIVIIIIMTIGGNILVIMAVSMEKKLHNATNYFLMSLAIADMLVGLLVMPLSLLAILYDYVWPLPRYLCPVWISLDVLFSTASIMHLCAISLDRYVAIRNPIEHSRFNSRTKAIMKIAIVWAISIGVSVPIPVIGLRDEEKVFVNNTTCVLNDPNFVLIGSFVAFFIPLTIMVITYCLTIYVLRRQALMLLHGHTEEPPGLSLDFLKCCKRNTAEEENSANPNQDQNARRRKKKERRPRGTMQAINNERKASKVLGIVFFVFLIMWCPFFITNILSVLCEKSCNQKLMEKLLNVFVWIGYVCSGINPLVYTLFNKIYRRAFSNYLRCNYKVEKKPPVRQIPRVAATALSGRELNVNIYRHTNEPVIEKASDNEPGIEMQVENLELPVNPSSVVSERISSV
Description: Mesulergine Binding Assay to Evaluate Affinity for Human 5-HT2C Receptor
(§1) Preparation of the Cells and Membrane Preparations
In the experiment, human serotonin 2C receptor (h-5-HT2C) was expressed in CHO cells (h-5-HT2C/CHO). The cells were incubated with UltraCHO Lipuid (trademark) (manufactured by BioWhitakker) containing 1% FBS, 400 μg/mL Geneticin, 100 U/mL penicillin—100 μg/mL streptomycin (all manufactured by Sigma Aldrich) and 250 μg/mL Zeosin (manufactured by InvivoGen) in an incubator containing 5% CO2; detached and collected using 50 mmol/L Tris-HCl (pH=7.4); homogenized with a homogenizer manufactured by Teflon (trademark); and then centrifuged (48,000×g, 25 min, 4° C.). The precipitate was suspended again in the appropriate amount of 50 mmol/L Tris-HCl (to give a membrane preparation), and stored at −80° C. until used. The amount of protein in the membrane preparation was assayed by Dye Reagent Concentrate (manufactured by BIO-RAD) using bovine serum albumin (manufactured by Sigma Aldrich) as a standard.
2-2. 5-HT2C Receptor Binding Assay
A solution of 200 μL in total was prepared by mixing 50 μL of [^3H] mesulergine (manufactured by GE Healthcare) diluted with 50 mmol/L Tris-HCl (pH=7.4) (final concentration: about 2 nmol/L), 149 μL of the h-5-HT2C/CHO membrane preparation (protein amount: 20 μg/well), and 1 μL of the test drug dissolved in dimethylsulfoxide. The solution was reacted at 37° C. for 30 minutes, and then quickly suction-filtered under reduced pressure through a glass fiber filter coated with 1% aq. bovine serum albumin. The glass fiber filter was washed twice with 250 μL of 50 mmol/L Tris-HCl (pH=7.4), placed in a plastic vial containing 4 mL of liquid scintillator (ACS-II, manufactured by Amersham) or Ecoscint A (manufactured by National Diagnostics), and the remaining radioactivity on the filter paper was assayed with a liquid scintillation counter. The non-specific binding of [^3H] mesulergine was defined as a binding amount in the presence of 10 μmol/L SB206553 (manufactured by Sigma Aldrich). The IC50 value was calculated according to Hill analysis, and the binding inhibition constant (Ki) was calculated according to the following formula: Binding inhibition constant (Ki)=IC50/(1+S/Kd) wherein S is a concentration of the added [^3H] mesulergine, and Kd is a binding dissociation constant of [^3H] mesulergine which was calculated from a saturated binding assay using the same cell membrane.

[2] = target: human serotonin transporter (h-SERT) (Homo sapiens (Human), UniProt P31645); test: [3H] citalopram binding assay to evaluate human serotonin reuptake inhibitory action (h-SERT binding assay)
Description: Citalopram Binding Assay to Evaluate Human Serotonin Reuptake Inhibitory Action
as §1
In the experiment, human serotonin transporter (h-SERT) was expressed in CHO cells (h-SERT/CHO). The cells were incubated with F12 containing 10% FCS, 500 μg/mL Geneticin and 100 U/mL penicillin—100 μg/mL streptmycin (all manufactured by Sigma Aldrich) in an incubator containing 5% CO2; detached and collected using a SERT buffer [50 mmol/L Tris-HCl comprising 120 mmol/L NaCl and 5 mmol/L KCl (pH=7.4)]; homogenized with a homogenizer manufactured by Teflon (trademark); and then centrifuged (50,000×g, 30 min, 4° C.). The precipitate was suspended again in the appropriate amount of SERT buffer (to give a membrane preparation), and stored at −80° C. until used. The amount of protein in the membrane preparation was assayed by Dye Reagent Concentrate (manufactured by BIO-RAD) using bovine serum albumin (manufactured by Sigma Aldrich) as a standard.
1-2. h-SERT Binding Assay
The [^3H] citalopram binding was measured according to the method disclosed in Owens M. J. et al., J. Pharm. […] The solution was reacted at room temperature for 60 minutes, and then quickly suction-filtered under reduced pressure through a glass fiber filter coated with 0.05% aq. polyethyleneimine. The glass fiber filter was washed twice with […] of the SERT buffer, placed in a plastic vial containing 4 mL of liquid scintillator (ACS-II, manufactured by Amersham) or Ecoscint A (manufactured by National Diagnostics), and the remaining radioactivity on the filter paper was assayed with a liquid scintillation counter.

[3] = [3H] citalopram binding, read-out: Test Ex. 1: h-SERT binding inhibition constant Ki

Row | Structure (SMILES) | Ki [1] [nM] | Ki [2, 3] [nM] | Ki [2] [nM]
1 | CNCc1cc(OCc2ccccc2)n(Cc2ccccc2)n1 [Example 1, 1-[1-Benzyl-5-(benzyloxy)-1H-pyrazol-3-yl]-N-methylmethanamine hydrochloride] | 26 | 4.9 | 
2 | CNCc1cc(OCc2ccc(F)cc2C)n(CC2CCCCC2)n1 [Example 31, 1-{1-(Cyclohexylmethyl)-5-[(4-fluoro-2-methylbenzyl)oxy]-1H-pyrazol-3-yl}-N-methylmethanamine] | 5.2 | 0.92 | 
3 | CNCc1cc(OCc2ccc(F)cc2)n(CC2CCCC2)n1 [Example 137, 1-{1-(cyclopentylmethyl)-5-[(4-fluorobenzyl)oxy]-1H-pyrazol-3-yl}-N-methylmethanamine] | 7.9 | 6.6 | 
4 | CNCc1cc(OCc2cc(F)ccc2F)n(CC2CCCC2)n1 [Example 147, 1-{1-(cyclopentylmethyl)-5-[(2,5-difluorobenzyl)oxy]-1H-pyrazol-3-yl}-N-methylmethanamine] | 4.8 | 0.71 | 
5 | CNCc1cc(OCc2cc(Cl)ccc2F)n(CC2CCCC2)n1 [Example 148, 1-{5-[(5-chloro-2-fluorobenzyl)oxy]-1-(cyclopentylmethyl)-1H-pyrazol-3-yl}-N-methylmethanamine] | 1.9 | 4.6 | 
6 | CNCc1cc(OCc2ccccc2)n(CCC2CCCC2)n1 [Example 192, 1-[5-(Benzyloxy)-1-(2-cyclopentylethyl)-1H-pyrazol-3-yl]-N-methylmethanamine] | 3.9 | 0.91 | 
7 | CNCc1cc(OCc2cc(F)ccc2F)n(Cc2ccc(F)cc2)n1 [Example 219, 1-{5-[(2,5-difluorobenzyl)oxy]-1-(4-fluorobenzyl)-1H-pyrazol-3-yl}-N-methylmethanamine] | 10 | 1.6 | 
8 | CNCc1cc(OCc2cc(F)ccc2F)n(Cc2ccc(C)cc2)n1 [Example 230, 1-{5-[(2,5-difluorobenzyl)oxy]-1-(4-methylbenzyl)-1H-pyrazol-3-yl}-N-methylmethanamine] | 4.9 | 2.3 | 
9 | CNCc1cc(OCc2cc(F)c(F)cc2F)n(CC2CCCC2)n1 [Example 280, 1-{1-(cyclopentylmethyl)-5-[(2,4,5-trifluorobenzyl)-oxy]-1H-pyrazol-3-yl}-N-methylmethanamine] | 9.7 | 1.9 | 
10 | CNCc1cc(OCc2cc(F)c(F)cc2F)n(CCC(C)(C)C)n1 [Example 284, 1-{1-(3,3-dimethylbutyl)-5-[(2,4,5-trifluorobenzyl)-oxy]-1H-pyrazol-3-yl}-N-methylmethanamine] | 7.9 | 5.7 | 
11 | CNCc1cc(OCc2cc(F)c(F)cc2F)n(Cc2ccc(C)cc2)n1 [Example 286, N-methyl-1-{1-(4-methylbenzyl)-5-[(2,4,5-trifluoro-benzyl)oxy]-1H-pyrazol-3-yl}methanamine] | 6.6 | 5.5 | 
12 | Fc1ccc(F)c(COc2cc(CNC3CC3)nn2CC2CCCCC2)c1 [Example 342, N-({1-(Cyclohexylmethyl)-5-[(2,5-difluorobenzyl)oxy]-1H-pyrazol-3-yl}methyl)cyclopropanamine] | 14 | 8.5 | 
13 | CNCc1nn(CC2CCCCC2)c(OCc2cc(F)ccc2F)c1F.Cl [Example 351, 1-{1-(Cyclohexylmethyl)-5-[(2,5-difluorobenzyl)oxy]-4-fluoro-1H-pyrazol-3-yl}-N-methylmethanamine hydrochloride] | 43 |  | 0.98
14 | CNCc1cc(OCc2ccccc2F)n(CCC(C)C)n1 [Example 381, 1-{5-[(2-fluorobenzyl)oxy]-1-(3-methylbutyl)-1H-pyrazol-3-yl}-N-methylmethanamine] | 10 | 3.4 | 
15 | CNCc1cc(OCc2ccc(F)cc2)n(CC2(C(F)(F)F)CCCC2)n1 [Example 446, 1-(5-[(4-fluorobenzyl)oxy]-1-{[1-(trifluoromethyl)-cyclopentyl]methyl}-1H-pyrazol-3-yl)-N-methylmethanamine] | 19 | 7.4 | 
